Test results published in US20220378706A1, “PHARMACEUTICAL COMPOSITION COMPRISING PDE9 INHIBITOR” (Eisai R&D Management Co., Ltd., priority 2017, published 2022).

Assays:
[1] = test system: cGMP in the cerebrospinal fluid; test: CSF cGMP elevation in rats; format: in vivo; settings: rat, scopolamine
Experimental: cGMP in the cerebrospinal fluid (hereinafter referred to as “CSF cGMP”) elevation in each sample was measured according to the method described in WO2013/051639.

[2] = High precision QTcF analysis using Holter ECG recording; format: in vivo, human; settings: at the Cmax at the highest doses of 800 to 1200 mg, healthy subjects
Experimental: In addition, high precision QTcF analysis using Holter ECG recording was conducted in Parts A, C, and D during Day −1 and Day 1, to allow more rigorous assessments of possible changes in QTcF intervals. A central ECG laboratory was used to extract ECG recordings from the Holter device.

CSF cGMP = test: Single dose clinical study Part B: CSF cGMP pharmacodynamics; format: in vivo, human; settings: for CSF cGMP Amax Mean (SD) / CSF cGMP TAmax Median / CSF cGMP ΔAUAC(0-30 h) Mean (SD): healthy adults Part B, fasted
Experimental: After the Screening Period, subjects returned to the clinic on […] for Baseline procedures. […] Serial CSF sampling via the lumbar catheter commenced on Day 1, after an overnight fast. CSF samples were collected on Day 1 over a period of 3 hours predose. Subjects were then administered study drug, and serial CSF sampling for 30 hours postdose was performed to determine CSF cGMP and CSF Compound A concentrations. Blood samples for plasma Compound A PK were collected at the same time points as CSF sampling. Safety evaluations were also performed.
Serial CSF samples were collected from the lumbar catheter for analysis of concentrations of cyclic […] monophosphate (cGMP) at −3, −2, −1 hours, predose (0 hour), and postdose at 1, 2, 3, 4, 5, 6, 8, 10, 12, 14, 16, 18, 24, and 30 hours.
Plasma, urine and CSF concentrations of Compound A were measured using validated liquid chromatography mass spectrometry/mass spectrometry (LC MS/MS) assay methods. CSF concentrations of cGMP were measured using a validated LC-MS/MS assay method.
The primary PD measure was CSF cGMP. The following PD parameters were reported for CSF cGMP:
Plasma Compound A concentrations pooled from all cohorts of the study were subjected to population PK analysis using nonlinear mixed effects modelling. The effect of covariates, such as baseline demographics/characteristics (eg, body weight, age, gender, ethnicity, etc) on the PK of Compound A were explored. The individual posterior estimates of PK parameters were then used to generate individual PK profiles of Compound A, which were used in subsequent PK/PD analysis of the percent change from baseline in CSF cGMP concentrations.

[3] = test system: scopolamine-induced memory impairment in rats; test: Scopolamine-induced memory impairment in rat novel object recognition test; format: in vivo; settings: scopolamine 0.7 mg/kg i.p., mean ± SEM
Source text: (Effects of Compound a Monomaleate Salt on Scopolamine-Induced Memory Impairment in Rat Novel Object Recognition Test)
The effects of orally administered Compound A monomaleate salt on scopolamine-induced memory impairment in a novel object recognition test in rats was examined.
Six-week-old male Long-Evans rats (Institute for Animal Reproduction) were used in this study. Before test day, rats were placed in each experimental apparatus once a day, on two consecutive days to habituate rats to the test chamber. […]
Following a 2-hour […] interval, a retention trial (T2) was conducted. […] Animal performance in T1 and T2 was recorded with a digital video camera, and the amount of time spent exploring each object was measured by manual stopwatches. […]
In novel object recognition test, the following novel object exploration ratio in T2 is considered as amnesic indexes reflecting the discrimination between the familiar and novel objects. These indexes are calculated according to the following formulas: […]
Data are expressed as the mean±SEM. The difference between the non-scopolamine treated control and scopolamine treated control groups were analyzed using unpaired t test. The effects of Compound A monomaleate salt on novel object exploration ratio in T2 was analyzed by one-way analysis of variance (ANOVA) followed by the Dunnett multiple comparison test. […]

**Q.** For COc1ncc(C)c(-c2ccc3c(c2)[nH]c(=O)c2cnn([C@H]4CCOC4)c23)c1C [Compound A, (S)-7-(2-methoxy-3,5-dimethylpyridin-4-yl)-1-(tetrahydrofuran-3-yl)-1H-pyrazolo[4,3-c]quin olin-4(5H)-one], which “% CSF cGMP increase from vehicle control” value ([1]; 3.3 mg/kg oral) is on record?
**A.** (90) %

**Q.** And the “CSF cGMP conc.” value ([1]; 3.3 mg/kg oral)?
**A.** 3.694 ± 0.65 nM

**Q.** What about the “% CSF cGMP increase from vehicle control” value ([1]; 10 mg/kg oral) of the same compound?
**A.** (152) %

**Q.** And the “CSF cGMP conc.” value ([1]; 10 mg/kg oral)?
**A.** 4.889 ± 0.538 nM

**Q.** What about the “upper 90% CI of the ΔΔQTcF” value [2] of the same compound?
**A.** less than 10 ms

**Q.** What about the “sustained CSF cGMP increase from baseline predicted from PK/PD modeling” value (CSF cGMP; 100 mg administered to steady state) of the same compound?
**A.** approximately 200%

**Q.** What about the “CSF cGMP Amax Mean (SD)” value (CSF cGMP; single oral 50 mg) of the same compound?
**A.** 367 (92.6) %

**Q.** What about the “CSF cGMP TAmax Median” value (CSF cGMP; single oral 50 mg) of the same compound?
**A.** 7.87 h

**Q.** What about the “CSF cGMP ΔAUAC(0-30 h) Mean (SD)” value (CSF cGMP; single oral 50 mg) of the same compound?
**A.** 117 (51.7) %

**Q.** And the “CSF cGMP Amax Mean (SD)” value (CSF cGMP; single oral 75 mg)?
**A.** 461 (86.3) %

**Q.** What about the “CSF cGMP TAmax Median” value (CSF cGMP; single oral 75 mg) of the same compound?
**A.** 5.87 h

**Q.** What about the “CSF cGMP ΔAUAC(0-30 h) Mean (SD)” value (CSF cGMP; single oral 75 mg) of the same compound?
**A.** 166 (9.61) %

**Q.** What about the “CSF cGMP Amax Mean (SD)” value (CSF cGMP; single oral 100 mg) of the same compound?
**A.** 293 (67.8) %

**Q.** And the “CSF cGMP TAmax Median” value (CSF cGMP; single oral 100 mg)?
**A.** 5.87 h

**Q.** What about the “CSF cGMP ΔAUAC(0-30 h) Mean (SD)” value (CSF cGMP; single oral 100 mg) of the same compound?
**A.** 87.0 (33.9) %

**Q.** What about the “CSF cGMP Amax Mean (SD)” value (CSF cGMP; single oral 200 mg) of the same compound?
**A.** 424 (127) %

**Q.** What about the “CSF cGMP TAmax Median” value (CSF cGMP; single oral 200 mg) of the same compound?
**A.** 5.37 h

**Q.** And the “CSF cGMP ΔAUAC(0-30 h) Mean (SD)” value (CSF cGMP; single oral 200 mg)?
**A.** 176 (89.5) %

**Q.** What about the “CSF cGMP Amax Mean (SD)” value (CSF cGMP; single oral 400 mg) of the same compound?
**A.** 420 (123) %

**Q.** What about the “CSF cGMP TAmax Median” value (CSF cGMP; single oral 400 mg) of the same compound?
**A.** 12.9 h

**Q.** And the “CSF cGMP ΔAUAC(0-30 h) Mean (SD)” value (CSF cGMP; single oral 400 mg)?
**A.** 214 (82.3) %

**Q.** And the “Novel object exploration ratio in T2” value ([3]; 3.3 mg/kg oral)?
**A.** 68.5 ± 2.0 %

**Q.** And the “Novel object exploration ratio in T2” value ([3]; 10 mg/kg oral)?
**A.** 68.5 ± 1.6 %
